≈ marks a conversion by molar mass, not a printed value.

This series in a line: Toxicity against Artemia salina after 24 hrs. Type of series: organism-based. Particulars: in vivo.
Take `CC(C)CCC[C@@H](C)[C@H]1CC[C@H]2[C@@H]3[C@@H](O)C=C4C[C@@H](O)CC[C@]4(CO)[C@H]3CC[C@]12C`: the LC50 at 24 h amounted to 55.6 µg/mL (≈ 133 µM).
The value for `CC(C)CCC[C@](C)(O)[C@H]1C(=O)C[C@H]2[C@@H]3CCC4=CC(=O)C=C[C@]4(C)[C@H]3CC[C@@]21CO` was 139 µg/mL (≈ 325 µM); that for `CC(C)C/C=C/[C@@H](C)[C@H]1CC[C@H]2[C@@H]3[C@@H](O)C=C4C[C@@H](O)CC[C@]4(CO)[C@H]3CC[C@]12C` was 30.7 µg/mL (≈ 73.7 µM); that for `CC(C)CCC[C@@H](C)[C@H]1CC[C@H]2[C@@H]3[C@@H](O)C=C4C[C@@H](O)CC[C@]4(CO)[C@@]3(O)CC[C@]12C` was 7.2 µg/mL (≈ 16.6 µM).

A word on the LC50: it is the concentration that kills 50% of the test population. Read a low LC50 as a more lethal substance.

The record behind these values is ChEMBL document CHEMBL1159011, “Four new bioactive polyhydroxylated sterols from the black coral Antipathes subpinnata” (J Nat Prod, 1992).
